Reference: publication PMC12627627 (Nature Communications, 2025)
Several values for one entry are separate records, joined by “and”; a condition that tells them apart may be missing. Equal values may be shown once. One block for each compound: values may come before it.

Key:
[1] = parameters: method as in PMID 1729917, PMID 2790379; details: water-soluble analog compared with DAN; cited from earlier work
R12 domain of RyR1 = target: T1, R12 domain of RyR1 (Homo sapiens, UniProt P21817); assay: ITC, R12 domain of RyR1; format: binding
T1 construct: RyR1 854–1054, RyR2 865–1065, RyR3 853–1053; made in house; host or cells: E. coli BL21 (DE3)
T1 sequence (P21817 854-1054): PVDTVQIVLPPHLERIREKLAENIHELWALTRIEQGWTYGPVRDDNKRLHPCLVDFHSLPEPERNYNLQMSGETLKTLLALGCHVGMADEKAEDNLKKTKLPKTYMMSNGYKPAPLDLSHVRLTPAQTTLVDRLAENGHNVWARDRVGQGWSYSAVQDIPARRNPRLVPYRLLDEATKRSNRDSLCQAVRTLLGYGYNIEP
Experimental: The plasmids were subsequently transformed into E. coli BL21 (DE3) cells (NEB, USA) and cultured in Luria-Bertani (LB) media at 37 °C. Protein expression was induced with 0.4 mM isopropyl β-D-thiogalactoside (IPTG) when the optical density (OD)600 reached ~0.8, followed by incubation at 18 °C for 12 h. The cells were harvested via centrifugation at 5,000 × g for 15 min at 4 °C and homogenized in Buffer A (10 mM HEPES, pH 7.4, 250 mM KCl) supplemented with 25 µg/mL DNaseI, 25 µg/mL lysozyme, 1 mM phenylmethylsulfonyl fluoride (PMSF), and 20 mM imidazole. The homogenate was centrifuged at 12,000 × g for 45 min, and the supernatant was filtered through a syringe filter (0.22 µm).
Purified R12 domain protein from the three RyR isoforms, fused with hexahistidine-tagged MBP (HMT-R12) was dialyzed overnight at 4 °C in ITC buffer (200 mM HEPES, pH 7.4, 150 mM KCl). ITC experiments were performed using a PEAQ-ITC instrument (Malvern, UK) at 25 °C with a stirring speed of 750 rpm. […] For the ternary binding experiments, 500 μM or 5 mM AMP-PCP/ADP was preincubated with both the titrants and titrates. […] The data was fit to a one-site fitting model after background buffer subtraction. The RyR1 R12 mutants were generated using a QuikChange mutagenesis kit (Stratagene) according to the manufacturer’s protocol, with primer sequences listed in Supplementary Table 3.

WT RyR2 = assay: Time-lapse [Ca2+]ER measurement, HEK293 cells expressing WT RyR2; format: cell-based; details: for ER luminal [Ca2+] change (F/F0): Fig. 5D source data, single replicates
Experimental: (§1) HEK293 cells stably expressing R-CEPIA1er and RyRs (WT RyR1, RyR1-W881A, RyR1-W995A, RyR1-R2163C, and WT RyR2)[26],[27] were used in this study. Briefly, the cells were seeded at a density of 2 × 10⁴ cells/well in a 96-well black, clear-bottom plate (Corning). Doxycycline (2 µg/mL) was added 12 h after seeding, and the medium was replaced 24 h later with HEPES-buffered Krebs solution (5 mM HEPES, pH 7.4; 140 mM NaCl; 5 mM KCl; 2 mM CaCl₂; 1 mM MgCl₂; and 11 mM glucose). Fluorescence measurements were conducted using a FlexStation 3 fluorometer (Molecular Devices) at 37 °C. The R-CEPIA1er was excited at 560 nm, emitted at 610 nm, and captured every 10 seconds over 300 seconds. Different concentrations of compound, dissolved in buffer containing 1% DMSO, were added 100 s after recording began. The fluorescence changes (F/F₀) were calculated by dividing the average fluorescence of the last 100 seconds (F) by that of the first 100 seconds (F₀). All measurements were performed in triplicate.

RyR1 W995A = target: T2, RyR1 W995A (Oryctolagus cuniculus, UniProt P11716, W996A); assay: Time-lapse [Ca2+]ER measurement, HEK293 cells expressing RyR1 W995A; format: cell-based; details: 4 mM caffeine; for ER luminal [Ca2+] change (F/F0): Fig. 5H source data, RyR1-W995A, single replicates
T2 construct: expressed in transfected cells
Experimental: as §1

WT RyR1 = target: T3, WT RyR1 (Oryctolagus cuniculus, UniProt P11716); assay: Time-lapse [Ca2+]ER measurement, HEK293 cells expressing WT RyR1; format: cell-based; details: Fig. 5H source data, 4 mM caffeine, single replicates
T3 construct: expressed in transfected cells

RyR1 W881A = target: T4, RyR1 W881A (Oryctolagus cuniculus, UniProt P11716, W882A); assay: Time-lapse [Ca2+]ER measurement, HEK293 cells expressing RyR1 W881A; format: cell-based; details: 4 mM caffeine; for ER luminal [Ca2+] change (F/F0): Fig. 5H source data, RyR1-W881A, single replicates
T4 construct: expressed in transfected cells
Experimental: as §1

[2] = RyR1 R12, no nucleotide, ITC 25 °C

Kd (R12 domain of RyR1; RyR1 R12 + 500 µM ADP): 0.241 ± 0.031 µM
No of Sites (N) (R12 domain of RyR1; RyR1 R12 + 500 µM ADP): 0.652 ± 0.16
ΔH (R12 domain of RyR1; RyR1 R12 + 500 µM ADP): -7.92 ± 0.91 kcal/mol
−TΔS (R12 domain of RyR1; RyR1 R12 + 500 µM ADP): -1.11 kcal/mol
No of Sites (N) (R12 domain of RyR1; RyR1 R12 + 500 µM AMP-PCP): 0.904 ± 0.52
ΔH (R12 domain of RyR1; RyR1 R12 + 500 µM AMP-PCP): -2.99 ± 0.47 kcal/mol
−TΔS (R12 domain of RyR1; RyR1 R12 + 500 µM AMP-PCP): -6.48 kcal/mol
Kd (R12 domain of RyR1; RyR1 R12 + 5 mM ADP): 0.06 ± 0.012 µM
No of Sites (N) (R12 domain of RyR1; RyR1 R12 + 5 mM ADP): 0.489 ± 0.28
ΔH (R12 domain of RyR1; RyR1 R12 + 5 mM ADP): -8.45 ± 0.94 kcal/mol
−TΔS (R12 domain of RyR1; RyR1 R12 + 5 mM ADP): -1.40 kcal/mol
Kd (R12 domain of RyR1; RyR1 R12 + 5 mM AMP-PCP): 0.046 ± 0.014 µM
No of Sites (N) (R12 domain of RyR1; RyR1 R12 + 5 mM AMP-PCP): 0.718 ± 0.50
ΔH (R12 domain of RyR1; RyR1 R12 + 5 mM AMP-PCP): -7.75 ± 0.12 kcal/mol
−TΔS (R12 domain of RyR1; RyR1 R12 + 5 mM AMP-PCP): -2.26 kcal/mol
No of Sites (N) (R12 domain of RyR1; RyR1 R12, no nucleotide): 0.810 ± 0.21
ΔH (R12 domain of RyR1; RyR1 R12, no nucleotide): -80 kcal/mol
−TΔS (R12 domain of RyR1; RyR1 R12, no nucleotide): 75.60 kcal/mol
Kd (R12 domain of RyR1; [2]): 595 µM and 596 µM
SMILES: O=C1CN(/N=C/c2ncc(-c3ccc(Br)cc3)o2)C(=O)N1 [AZU, Azumolene]
solubility relative to DAN [1]: approximately 30 fold

SMILES: O=C(C[C@@H](NCCCO)C(=O)O)Nc1ccc2ccccc2c1 [RI-2]
ER luminal [Ca2+] change (F/F0) (WT RyR2; RI-2 0.1 uM): 1.012 and 0.991 and 0.9966
ER luminal [Ca2+] change (F/F0) (WT RyR2; RI-2 0.3 uM): 1.053 and 1.031 and 0.9893
ER luminal [Ca2+] change (F/F0) (WT RyR2; RI-2 1 uM): 1.071 and 0.9532 and 1.019
ER luminal [Ca2+] change (F/F0) (WT RyR2; RI-2 3 uM): 0.989 and 1.026 and 1.009
ER luminal [Ca2+] change (F/F0) (WT RyR2; RI-2 10 uM): 1.0308 and 1.04 and 0.9817
ER luminal [Ca2+] change (F/F0) (WT RyR2; RI-2 30 uM): 1.051 and 0.9858 and 1.027
ER luminal [Ca2+] change (F/F0) (WT RyR2; RI-2 100 uM): 1.1169 and 1.011 and 1.1
effect on ER luminal [Ca2+] (WT RyR2; dose-dependent [Ca2+]ER measurements): no significant effect
ER luminal [Ca2+] change (F/F0) (RyR1 W995A; RI-2 0.1 uM): 1.018 and 1 and 0.9822
ER luminal [Ca2+] change (F/F0) (RyR1 W995A; RI-2 0.3 uM): 1.035 and 1.023 and 0.9731
ER luminal [Ca2+] change (F/F0) (RyR1 W995A; RI-2 1 uM): 1.011 and 1.046 and 0.9965
ER luminal [Ca2+] change (F/F0) (RyR1 W995A; RI-2 3 uM): 1.0547 and 1.017 and 1.01
ER luminal [Ca2+] change (F/F0) (RyR1 W995A; RI-2 10 uM): 1.05 and 1.027 and 0.98
ER luminal [Ca2+] change (F/F0) (RyR1 W995A; RI-2 30 uM): 1.073 and 0.9504 and 1.033
ER luminal [Ca2+] change (F/F0) (RyR1 W995A; RI-2 100 uM): 0.9659 and 1.079 and 1.107
inhibitory effect in time-lapse ER Ca2+ measurements (RyR1 W995A; RyR1 W995A): completely lost
ER luminal [Ca2+] change (F/F0) (WT RyR1; RI-2 0.1 uM): 0.9624 and 0.9803 and 0.9793
ER luminal [Ca2+] change (F/F0) (WT RyR1; RI-2 0.3 uM): 0.9865 and 0.9725 and 0.9809
ER luminal [Ca2+] change (F/F0) (WT RyR1; RI-2 1 uM): 1.001 and 1.0002 and 0.9956
ER luminal [Ca2+] change (F/F0) (WT RyR1; RI-2 3 uM): 1.043 and 1.036 and 1.039
ER luminal [Ca2+] change (F/F0) (WT RyR1; RI-2 10 uM): 1.092 and 1.122 and 1.066
ER luminal [Ca2+] change (F/F0) (WT RyR1; RI-2 30 uM): 1.229 and 1.248 and 1.218
ER luminal [Ca2+] change (F/F0) (WT RyR1; RI-2 100 uM): 1.681 and 1.622 and 1.659
Kd (R12 domain of RyR1; RyR1 R12 + 500 µM ADP): 49.1 ± 50.1 µM
No of Sites (N) (R12 domain of RyR1; RyR1 R12 + 500 µM ADP): 0.605 ± 0.21
ΔH (R12 domain of RyR1; RyR1 R12 + 500 µM ADP): -3.08 ± 0.20 kcal/mol
−TΔS (R12 domain of RyR1; RyR1 R12 + 500 µM ADP): -4.30 kcal/mol
Kd (R12 domain of RyR1; RyR1 R12 + 500 µM AMP-PCP): 1.75 ± 0.29 µM
No of Sites (N) (R12 domain of RyR1; RyR1 R12 + 500 µM AMP-PCP): 0.721 ± 0.12
ΔH (R12 domain of RyR1; RyR1 R12 + 500 µM AMP-PCP): -5.47 ± 0.17 kcal/mol
−TΔS (R12 domain of RyR1; RyR1 R12 + 500 µM AMP-PCP): -2.39 kcal/mol
Kd (R12 domain of RyR1; RyR1 R12 + 5 mM ADP): 3.86 ± 0.975 µM
No of Sites (N) (R12 domain of RyR1; RyR1 R12 + 5 mM ADP): 0.912 ± 0.43
ΔH (R12 domain of RyR1; RyR1 R12 + 5 mM ADP): -15.09 ± 11.60 kcal/mol
−TΔS (R12 domain of RyR1; RyR1 R12 + 5 mM ADP): 10.1 kcal/mol
Kd (R12 domain of RyR1; RyR1 R12 + 5 mM AMP-PCP): 0.56 ± 0.17 µM
No of Sites (N) (R12 domain of RyR1; RyR1 R12 + 5 mM AMP-PCP): 0.547 ± 0.43
ΔH (R12 domain of RyR1; RyR1 R12 + 5 mM AMP-PCP): -7.05 ± 0.69 kcal/mol
−TΔS (R12 domain of RyR1; RyR1 R12 + 5 mM AMP-PCP): -0.11 kcal/mol
No of Sites (N) (R12 domain of RyR1; RyR1 R12, no nucleotide): 0.519 ± 0.25
ΔH (R12 domain of RyR1; RyR1 R12, no nucleotide): -5.61 ± 0.73 kcal/mol
−TΔS (R12 domain of RyR1; RyR1 R12, no nucleotide): 0.944 kcal/mol
Kd (R12 domain of RyR1; [2]): 159 µM and 158 µM
ER luminal [Ca2+] change (F/F0) (RyR1 W881A; RI-2 0.1 uM): 0.9939 and 0.9815 and 1.025
ER luminal [Ca2+] change (F/F0) (RyR1 W881A; RI-2 0.3 uM): 0.9808 and 0.9609 and 0.9633
ER luminal [Ca2+] change (F/F0) (RyR1 W881A; RI-2 1 uM): 0.959 and 0.9789 and 1.039
ER luminal [Ca2+] change (F/F0) (RyR1 W881A; RI-2 3 uM): 0.968 and 1.003 and 1.025
ER luminal [Ca2+] change (F/F0) (RyR1 W881A; RI-2 10 uM): 0.9988 and 0.9974 and 1.012
ER luminal [Ca2+] change (F/F0) (RyR1 W881A; RI-2 30 uM): 1.035 and 0.9972 and 1.041
ER luminal [Ca2+] change (F/F0) (RyR1 W881A; RI-2 100 uM): 0.9975 and 1.115 and 0.9708
inhibitory effect in time-lapse ER Ca2+ measurements (RyR1 W881A; RyR1 W881A): completely lost
